In article PMC10747733, “N-Substituted 2-(Benzenosulfonyl)-1-Carbotioamide Derivatives Exert Antimicrobial and Cytotoxic Effects via Aldehyde Dehydrogenase Pathway: Synthesis, In Silico and In Vitro Studies” (Pharmaceuticals, 2023):

How the values were obtained:
Assay in all cases: Broth microdilution antimicrobial activity
Type in all cases: cell-based
[1] = system: Bacillus cereus ATCC 10876; details: for MBC / MIC: ATCC10876
Excerpt: (§1) Reference strains of microorganisms that came from American Type Culture Collection (ATCC) (Manassas, VA, USA) were used for this study. The representative Gram-positive bacteria were as follows: Staphylococcus aureus ATCC 25923, Staphylococcus aureus ATCC 29213, Staphylococcus aureus ATCC 43300, Staphylococcus epidermidis ATCC 12228, Enterococcus faecalis ATCC 29212, Micrococcus luteus ATCC 10240, Bacillus subtilis ATCC 6633 and Bacillus cereus ATCC 10876. While, those of Gram-negative bacteria were as follows: Bordetella bronchiseptica ATCC 4617, Escherichia coli ATCC 25922, Klebsiella pneumoniae ATCC 13883, Proteus mirabilis ATCC 12453, Salmonella Typhimurium ATCC 14028 and Pseudomonas aeruginosa ATCC 9027. Moreover, the following fungi belonging to yeasts were used: Candida albicans ATCC 10231, Candida albicans ATCC 2091, Candida parapsilosis ATCC 22019, Candida glabrata ATCC 90030 and Candida krusei ATCC 14243.
(§2) The new compounds WZ1–WZ4 were assayed for both antibacterial and antifungal activity using the broth microdilution method in accordance with the European Committee on Antimicrobial Susceptibility Testing (EUCAST) and Clinical and Laboratory Standards Institute (CLSI) guidelines. The microorganisms were grown at 35 °C for 18–24 h on appropriate media (nutrient agar and Sabouraud for bacteria and fungi, respectively) (BioMaxima S.A., Lublin, Poland). Next, microbial suspensions with an optical density of 0.5 McFarland standard scale (in sterile 0.85% NaCl) were prepared. In turn, the tested compounds were initially diluted at 50 mg/mL in dimethyl sulfoxide (DMSO) and the broth microdilution method was used to assess their minimum inhibitory concentrations (MICs). For these studies, selective broth Mueller-Hinton (MH) (BioMaxima S.A., Lublin, Poland) and RPMI (Roswell Park Memorial Institute) 1640 with MOPS (3-(N-Morpholino)propanesulfonic acid) (Sigma-Aldrich Chemicals, St. Louis, MO, USA) were used for bacteria and fungi, respectively. The antimicrobial effect of compounds WZ1–WZ4 was determined in the concentration range from 2000 to 0.98 µg/mL.
(§3) Then, the microbial suspensions were introduced into each well of the microplate and incubated for 18–24 h at 35 °C. […] The reference drugs ciprofloxacin or vancomycin (against bacteria) and nystatin (against fungi) (Sigma-Aldrich Chemicals, St. Louis, MO, USA) were also used. Next, the values of the minimum bactericidal concentration (MBC) and minimum fungicidal concentration (MFC) of WZ1–WZ4 were assessed. For this purpose, the cultures from each MIC determination well were transferred to a suitable solid medium and incubated under appropriate conditions. The lowest concentrations of compounds without microbial growth were read as MBC or MFC. The studies were performed in triplicate and representative data were gathered.
(§4) In turn, the MBC/MIC or MFC/MIC ratios were used to assess bactericidal/fungicidal (MBC/MIC or MFC/MIC ≤ 4) and bacteriostatic/fungistatic (MBC/MIC or MFC/MIC > 4) effect of these compounds [93].

[2] = system: Bacillus subtilis ATCC 6633; details: for MBC / MIC: ATCC6633
Excerpt: as §1, §2, §3, §4

[3] = system: Bordetella bronchiseptica ATCC 4617; details: for MBC / MIC: ATCC4617
Excerpt: as §1, §2, §3, §4

[4] = system: Candida albicans ATCC 10231; details: for MFC: ATCC10231, read-out: MFC; for MIC: ATCC10231, read-out: MIC
Excerpt: as §1, §2, §3, §4

[5] = system: Candida albicans ATCC 2091; details: for MFC: ATCC2091, read-out: MFC; for MIC: ATCC2091, read-out: MIC
Excerpt: as §1, §2, §3, §4

[6] = system: Candida glabrata ATCC 90030; details: for MFC / MIC: Nakaseomyces glabratus; for MFC: ATCC90030, read-out: MFC; for MIC: ATCC90030, read-out: MIC
Excerpt: as §1, §2, §3, §4

[7] = system: Candida krusei ATCC 14243; details: for MFC / MIC: Pichia kudriavzevii; for MFC: ATCC14243, read-out: MFC; for MIC: ATCC14243, read-out: MIC
Excerpt: as §1, §2, §3, §4

[8] = system: Candida parapsilosis ATCC 22019; details: for MFC / MIC: Lodderomyces parapsilosis; for MFC: ATCC22019, read-out: MFC; for MIC: ATCC22019, read-out: MIC
Excerpt: as §1, §2, §3, §4

[9] = system: Enterococcus faecalis ATCC 29212; details: Enterococcus faecalis ATCC 29212; for MBC / MIC: ATCC29212; for MBC: read-out: MBC; for MIC: read-out: MIC
Excerpt: as §1, §2, §3, §4

[10] = system: Escherichia coli ATCC 25922; details: for MBC / MIC: ATCC25922
Excerpt: as §1, §2, §3, §4

[11] = system: Klebsiella pneumoniae ATCC 13883; details: for MBC / MIC: ATCC13883
Excerpt: as §1, §2, §3, §4

[12] = system: Micrococcus luteus ATCC 10240; details: for MBC / MIC: ATCC10240
Excerpt: as §1, §2, §3, §4

[13] = system: Proteus mirabilis ATCC 12453; details: for MBC / MIC: ATCC12453
Excerpt: as §1, §2, §3, §4

[14] = system: Pseudomonas aeruginosa ATCC 9027; details: for MBC / MIC: ATCC9027
Excerpt: as §1, §2, §3, §4

[15] = system: Salmonella Typhimurium ATCC 14028; details: for MBC / MIC: Salmonella enterica
Excerpt: as §1, §2, §3, §4

[16] = system: Staphylococcus aureus ATCC 25923; details: for MBC / MIC: ATCC25923
Excerpt: as §1, §2, §3, §4

[17] = system: Staphylococcus aureus ATCC 29213; details: Staphylococcus aureus ATCC 29213; for MBC / MIC: ATCC29213
Excerpt: as §1, §2, §3, §4

[18] = system: Staphylococcus aureus ATCC 43300; details: Staphylococcus aureus ATCC 43300; for MBC / MIC: ATCC43300
Excerpt: as §1, §2, §3, §4

[19] = system: Staphylococcus epidermidis ATCC 12228; details: for MBC / MIC: ATCC12228
Excerpt: as §1, §2, §3, §4

O=S(=O)(NNC(=S)NC1CCCCC1)c1ccccc1 [WZ1, 2-(Benzenesulfonyl)-N-Cyclohexylhydrazine-1-Carbothioamide]
500 µg/mL: MIC [1] | MIC [2] | MIC [12] | MIC [16] | MIC [17] | MIC [18]
250 µg/mL: MIC [19]
> 2000 µg/mL: MBC [1] | MBC [2] | MBC [3] | MIC [3] | MFC [4] | MIC [4] | MFC [5] | MIC [5] | MFC [6] | MIC [6] | MFC [7] | MIC [7] | MFC [8] | MIC [8] | MBC [9] | MBC [10] | MIC [10] | MBC [11] | MIC [11] | MBC [12] | MBC [13] | MIC [13] | MBC [14] | MIC [14] | MBC [15] | MIC [15] | MBC [16] | MBC [17] | MBC [18] | MBC [19]
2000 µg/mL: MIC [9]
> 1: MBC/MIC [3] | MFC/MIC [4] | MFC/MIC [5] | MFC/MIC [6] | MFC/MIC [7] | MFC/MIC [8] | MBC/MIC [9] | MBC/MIC [10] | MBC/MIC [11] | MBC/MIC [13] | MBC/MIC [14] | MBC/MIC [15]
> 4: MBC/MIC [1] | MBC/MIC [2] | MBC/MIC [12] | MBC/MIC [16] | MBC/MIC [17] | MBC/MIC [18]
> 8: MBC/MIC [19]

CCCCCCNC(=S)NNS(=O)(=O)c1ccccc1 [WZ3, 2-(Benzenesulfonyl)-N-Hexylhydrazine-1-Carbothioamide]
4: MBC/MIC [2] | MBC/MIC [16]
> 4: MBC/MIC [3] | MBC/MIC [9] | MBC/MIC [10]
1000 µg/mL: MFC [4] | MFC [5] | MFC [7] | MIC [11] | MIC [13] | MBC [14] | MIC [14] | MIC [15] | MBC [16]
> 2000 µg/mL: MBC [3] | MBC [9] | MBC [10] | MBC [11] | MBC [13] | MBC [15]
> 2: MBC/MIC [11] | MBC/MIC [13] | MBC/MIC [15]
250 µg/mL: MBC [1] | MIC [1] | MIC [12] | MIC [16] | MIC [18] | MBC [19] | MIC [19]
125 µg/mL: MIC [2]
2: MFC/MIC [4] | MFC/MIC [5] | MFC/MIC [7] | MBC/MIC [12] | MBC/MIC [18]
2000 µg/mL: MFC [6] | MIC [6] | MFC [8] | MIC [8]
1: MBC/MIC [1] | MFC/MIC [6] | MFC/MIC [8] | MBC/MIC [14] | MBC/MIC [17] | MBC/MIC [19]
500 µg/mL: MBC [2] | MIC [3] | MIC [4] | MIC [5] | MIC [7] | MIC [9] | MIC [10] | MBC [12] | MBC [17] | MIC [17] | MBC [18]
